For orientation: inhibition means the drop in the measured response relative to a control, in per cent. As a reminder, the IC50 is the concentration at which inhibition is half-maximal. Read a low IC50 as greater potency in that assay.

Calls of active or inactive are those of the source. The calls are words filed in the database; no cut-off is given here.

Consider 1 compound from ChEMBL document CHEMBL4725259 (Bioorg Med Chem, 2020).

Assay [1] has as its target T1, Oxytocin receptor (Homo sapiens) (UniProt P30559).
T1 sequence (whole entry): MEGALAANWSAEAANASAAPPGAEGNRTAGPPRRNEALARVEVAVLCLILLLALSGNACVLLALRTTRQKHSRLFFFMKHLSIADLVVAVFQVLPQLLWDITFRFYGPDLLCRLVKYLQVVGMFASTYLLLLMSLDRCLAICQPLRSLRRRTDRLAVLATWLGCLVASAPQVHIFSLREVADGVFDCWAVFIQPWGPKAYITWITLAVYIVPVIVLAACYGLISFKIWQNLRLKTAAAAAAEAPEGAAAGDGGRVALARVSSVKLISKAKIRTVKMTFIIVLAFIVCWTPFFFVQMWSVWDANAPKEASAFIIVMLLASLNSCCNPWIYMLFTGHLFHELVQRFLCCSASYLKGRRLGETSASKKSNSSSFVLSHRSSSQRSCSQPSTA
Description: Agonist activity at human OXTR expressed in CHO-K1 cells at 20 uM by PathHunter beta-arrestin assay relative to control. In kind it is cell-based.

For assay [2], the target named is D(2) dopamine receptor (Homo sapiens) (UniProt P14416). Nature of the assay: Antagonist activity at human DRD2L expressed in CHO-K1 cells at 20 uM by PathHunter beta-arrestin assay relative to control. Format: cell-based. As to conditions: filed as antagonist.
Assay [3] has as its target T2, C-X-C chemokine receptor type 4 (Homo sapiens, UniProt P61073). Nature of the assay: Antagonist activity at human CXCR4 expressed in mouse C2C12 cells at 20 uM by PathHunter beta-arrestin assay relative to control. In kind it is cell-based. Conditions: filed as antagonist.
The target in assay [4] is T3, Follicle-stimulating hormone receptor (Homo sapiens) (UniProt P23945).
T3 sequence (whole entry): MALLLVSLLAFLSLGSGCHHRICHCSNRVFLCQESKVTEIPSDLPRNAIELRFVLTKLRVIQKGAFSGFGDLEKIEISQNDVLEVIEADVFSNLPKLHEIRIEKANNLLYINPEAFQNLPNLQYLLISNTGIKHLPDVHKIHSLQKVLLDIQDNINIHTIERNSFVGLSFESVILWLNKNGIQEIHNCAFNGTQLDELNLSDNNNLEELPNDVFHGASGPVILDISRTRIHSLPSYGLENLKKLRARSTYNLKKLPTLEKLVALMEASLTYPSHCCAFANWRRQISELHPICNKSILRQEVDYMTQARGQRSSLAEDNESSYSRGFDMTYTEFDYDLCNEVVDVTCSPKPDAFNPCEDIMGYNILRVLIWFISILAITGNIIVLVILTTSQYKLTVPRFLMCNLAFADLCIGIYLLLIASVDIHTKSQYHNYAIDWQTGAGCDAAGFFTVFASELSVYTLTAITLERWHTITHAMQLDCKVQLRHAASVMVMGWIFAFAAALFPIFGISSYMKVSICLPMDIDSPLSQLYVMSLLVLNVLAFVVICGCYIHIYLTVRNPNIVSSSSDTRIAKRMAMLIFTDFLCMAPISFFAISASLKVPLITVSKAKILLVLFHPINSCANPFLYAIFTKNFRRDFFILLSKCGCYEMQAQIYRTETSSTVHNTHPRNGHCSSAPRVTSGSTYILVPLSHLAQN
Description: Agonist activity at human FSHR expressed in CHO-K1 cells at 20 uM by PathHunter beta-arrestin assay relative to control. In kind it is cell-based.

For assay [5], the target named is T3, Follicle-stimulating hormone receptor (Homo sapiens). Nature of the assay: Antagonist activity at human FSHR expressed in CHO-K1 cells at 20 uM by PathHunter beta-arrestin assay relative to control. In kind it is cell-based. Conditions: filed as antagonist.
In assay [6] the target is T1, Oxytocin receptor (Homo sapiens). Description: Antagonist activity at human OXTR expressed in CHO-K1 cells at 20 uM by PathHunter beta-arrestin assay relative to control. Format: cell-based.
Assay [7] deals with T4, CX3C chemokine receptor 1 (Homo sapiens) (UniProt P49238).
T4 sequence (whole entry): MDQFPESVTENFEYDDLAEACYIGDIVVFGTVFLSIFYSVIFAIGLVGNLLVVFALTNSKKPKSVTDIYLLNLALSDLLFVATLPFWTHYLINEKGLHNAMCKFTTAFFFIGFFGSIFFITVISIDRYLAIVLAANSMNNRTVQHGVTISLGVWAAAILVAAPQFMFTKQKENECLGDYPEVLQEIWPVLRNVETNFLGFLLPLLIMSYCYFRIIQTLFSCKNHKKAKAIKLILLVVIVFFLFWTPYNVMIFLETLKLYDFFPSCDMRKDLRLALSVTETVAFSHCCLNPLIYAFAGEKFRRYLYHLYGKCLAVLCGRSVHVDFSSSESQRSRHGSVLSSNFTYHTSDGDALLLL
Nature of the assay: Agonist activity at human CX3CR1 expressed in CHO-K1 cells at 20 uM by PathHunter beta-arrestin assay relative to control. Format: cell-based.

For assay [8], the target named is T5, Follicle-stimulating hormone receptor (Homo sapiens, UniProt P23945).
T5 sequence (P23945 whole entry): T3 sequence (whole entry)
Description: Antagonist activity at human FSHR expressed in CHO-K1 cells by PathHunter beta-arrestin assay. Format: cell-based.

Assay [9] has as its target T6, Prolactin-releasing peptide receptor (Homo sapiens) (UniProt P49683).
T6 sequence (whole entry): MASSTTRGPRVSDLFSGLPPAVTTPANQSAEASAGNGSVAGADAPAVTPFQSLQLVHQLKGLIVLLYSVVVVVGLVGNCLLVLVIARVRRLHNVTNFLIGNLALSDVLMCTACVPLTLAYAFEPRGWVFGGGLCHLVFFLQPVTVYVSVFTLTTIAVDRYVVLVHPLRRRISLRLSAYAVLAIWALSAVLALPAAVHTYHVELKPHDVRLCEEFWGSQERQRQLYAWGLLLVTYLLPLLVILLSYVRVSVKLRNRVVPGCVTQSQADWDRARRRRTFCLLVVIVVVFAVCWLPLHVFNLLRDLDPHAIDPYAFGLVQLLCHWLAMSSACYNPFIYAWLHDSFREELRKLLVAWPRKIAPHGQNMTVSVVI
Description: Agonist activity at human PRLHR expressed in CHO-K1 cells at 20 uM by PathHunter beta-arrestin assay relative to control. Format: cell-based.

Assay [10] relates to U2OS. Description: Antagonist activity at NPSR1B in human U2OS cells at 20 uM by PathHunter beta-arrestin assay relative to control. Format: cell-based. Conditions: filed as antagonist.
Assay [11] addresses T7, Prolactin-releasing peptide receptor (Homo sapiens, UniProt P49683).
T7 sequence (P49683 whole entry): T6 sequence (whole entry)
Description: Antagonist activity at human PRLHR expressed in CHO-K1 cells by PathHunter beta-arrestin assay. In kind it is cell-based.

A short description of assay [12]: Antagonist activity at NPSR1B in human U2OS cells by PathHunter beta-arrestin assay. In kind it is cell-based.
The target in assay [13] is T2, C-X-C chemokine receptor type 4. Description: Agonist activity at human CXCR4 expressed in mouse C2C12 cells at 20 uM by PathHunter beta-arrestin assay relative to control. In kind it is cell-based.
Assay [14] has as its target T8, Vasopressin V2 receptor (Homo sapiens, UniProt P30518). Nature of the assay: Antagonist activity at human AVPR2 at 20 uM by PathHunter beta-arrestin assay relative to control. As to conditions: filed as antagonist.
For assay [15], the target named is T9, C-C chemokine receptor type 8 (Homo sapiens, UniProt P51685). Nature of the assay: Antagonist activity at human CCR8 expressed in CHO-K1 cells at 20 uM by PathHunter beta-arrestin assay relative to control. In kind it is cell-based. As to conditions: filed as antagonist.
Assay [16] deals with T6, Prolactin-releasing peptide receptor (Homo sapiens). Description: Antagonist activity at human PRLHR expressed in CHO-K1 cells at 20 uM by PathHunter beta-arrestin assay relative to control. Format: cell-based. Conditions: filed as antagonist.
The target in assay [17] is T9, C-C chemokine receptor type 8. Nature of the assay: Agonist activity at human CCR8 expressed in CHO-K1 cells at 20 uM by PathHunter beta-arrestin assay relative to control. In kind it is cell-based.
Assay [18] addresses T10, C-C chemokine receptor type 3 (Homo sapiens) (UniProt P51677).
T10 sequence (whole entry): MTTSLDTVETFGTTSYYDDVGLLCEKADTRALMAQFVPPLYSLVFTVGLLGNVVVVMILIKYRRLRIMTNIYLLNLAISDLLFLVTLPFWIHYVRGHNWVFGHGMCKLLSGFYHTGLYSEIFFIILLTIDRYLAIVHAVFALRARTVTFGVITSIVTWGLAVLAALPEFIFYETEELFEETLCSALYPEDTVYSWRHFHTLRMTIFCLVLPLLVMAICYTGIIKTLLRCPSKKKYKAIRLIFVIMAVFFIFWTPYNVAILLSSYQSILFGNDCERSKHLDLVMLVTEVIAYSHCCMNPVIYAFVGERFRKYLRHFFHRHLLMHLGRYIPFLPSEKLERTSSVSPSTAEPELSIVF
Description: Antagonist activity at human CCR3 expressed in CHO-K1 cells at 20 uM by PathHunter beta-arrestin assay relative to control. Format: cell-based. As to conditions: filed as antagonist.

For assay [19], the target named is D(2) dopamine receptor (Homo sapiens) (UniProt P14416). Description: Agonist activity at human DRD2L expressed in CHO-K1 cells at 20 uM by PathHunter beta-arrestin assay relative to control. In kind it is cell-based.
In assay [20] the target is T8, Vasopressin V2 receptor. Description: Agonist activity at human AVPR2 at 20 uM by PathHunter beta-arrestin assay relative to control.
Assay [21] has as its system U2OS. Description: Agonist activity at NPSR1B in human U2OS cells at 20 uM by PathHunter beta-arrestin assay relative to control. In kind it is cell-based.
The target of assay [22] is T4, CX3C chemokine receptor 1 (Homo sapiens). Nature of the assay: Antagonist activity at human CX3CR1 expressed in CHO-K1 cells at 20 uM by PathHunter beta-arrestin assay relative to control. In kind it is cell-based. Conditions: filed as antagonist.
Assay [23] deals with T10, C-C chemokine receptor type 3 (Homo sapiens). Nature of the assay: Agonist activity at human CCR3 expressed in CHO-K1 cells at 20 uM by PathHunter beta-arrestin assay relative to control. In kind it is cell-based.

T9 sequence (P51685 whole entry): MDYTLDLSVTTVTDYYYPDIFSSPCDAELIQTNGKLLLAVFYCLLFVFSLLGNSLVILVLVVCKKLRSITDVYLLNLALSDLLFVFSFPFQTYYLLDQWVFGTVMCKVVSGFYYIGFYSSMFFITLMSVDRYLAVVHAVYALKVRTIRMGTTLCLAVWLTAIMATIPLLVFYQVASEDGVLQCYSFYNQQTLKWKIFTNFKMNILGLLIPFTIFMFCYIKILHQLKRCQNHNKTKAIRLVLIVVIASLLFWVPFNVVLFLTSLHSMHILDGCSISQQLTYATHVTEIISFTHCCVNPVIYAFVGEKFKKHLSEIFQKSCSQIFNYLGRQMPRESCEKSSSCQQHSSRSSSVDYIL
T2 sequence (P61073 whole entry): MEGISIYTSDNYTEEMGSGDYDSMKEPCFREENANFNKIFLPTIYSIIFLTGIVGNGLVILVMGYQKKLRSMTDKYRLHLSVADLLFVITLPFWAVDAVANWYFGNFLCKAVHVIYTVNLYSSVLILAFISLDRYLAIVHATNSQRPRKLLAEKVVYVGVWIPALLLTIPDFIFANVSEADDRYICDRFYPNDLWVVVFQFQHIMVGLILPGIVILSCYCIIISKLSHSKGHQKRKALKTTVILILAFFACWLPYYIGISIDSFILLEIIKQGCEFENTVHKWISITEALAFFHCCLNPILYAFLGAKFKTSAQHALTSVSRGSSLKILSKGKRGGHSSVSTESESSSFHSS
Sequence of D(2) dopamine receptor (Homo sapiens) (P14416 whole entry): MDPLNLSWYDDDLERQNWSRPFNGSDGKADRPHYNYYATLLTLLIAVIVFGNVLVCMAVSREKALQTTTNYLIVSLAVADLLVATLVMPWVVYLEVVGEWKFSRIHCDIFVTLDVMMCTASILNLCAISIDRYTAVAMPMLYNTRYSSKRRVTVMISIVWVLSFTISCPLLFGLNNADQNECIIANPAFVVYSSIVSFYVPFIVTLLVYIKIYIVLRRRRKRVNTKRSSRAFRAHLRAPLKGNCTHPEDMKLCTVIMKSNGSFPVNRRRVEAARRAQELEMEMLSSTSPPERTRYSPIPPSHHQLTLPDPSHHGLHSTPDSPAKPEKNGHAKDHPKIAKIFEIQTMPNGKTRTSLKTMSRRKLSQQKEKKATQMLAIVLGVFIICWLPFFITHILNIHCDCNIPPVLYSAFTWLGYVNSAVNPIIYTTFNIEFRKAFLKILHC
T8 sequence (P30518 whole entry): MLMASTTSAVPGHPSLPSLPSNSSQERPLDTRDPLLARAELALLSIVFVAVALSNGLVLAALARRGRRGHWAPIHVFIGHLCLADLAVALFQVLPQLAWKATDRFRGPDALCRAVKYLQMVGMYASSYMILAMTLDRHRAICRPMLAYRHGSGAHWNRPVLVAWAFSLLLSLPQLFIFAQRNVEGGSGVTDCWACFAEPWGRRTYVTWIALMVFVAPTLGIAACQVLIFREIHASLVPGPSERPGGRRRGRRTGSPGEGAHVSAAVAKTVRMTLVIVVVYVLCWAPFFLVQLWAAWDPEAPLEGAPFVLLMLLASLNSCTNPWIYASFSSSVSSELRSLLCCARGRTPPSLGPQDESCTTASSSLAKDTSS

Turning to `COC(=O)[C@@H]1[C@H]2C[C@@H](OCc3ccc(Br)cc3)c3[nH]c4ccccc4c3CCN(C#N)C[C@@H]2CC[C@@H]1O`, the result in assay [1], in assay [4], in [7], in assay [9], in assay [13] and in assay [17] was inactive. Also, the result (in [19]; on Vasopressin V2 receptor [20]; with U2OS [21]; in [23]) was inactive. Besides, the inhibition is 10% in assay [2]; 29% in assay [3]; 94% in assay [5]; -7% in assay [6]; 87% in the assay with U2OS [10]; 1% at Vasopressin V2 receptor [14]. In addition, the inhibition in [15] amounted to 78%; in assay [16], 82%; in [18] it was 50%; in assay [22] it was 53%. For the same compound, the IC50 in [8] was 8.03 µM; in assay [11] it was 4.89 µM; in [12] it was 10.3 µM.
